Measurements reported in the NIST ThermoML archive (doi:10.1021/acs.jced.5b00845).

Legend:
[1] = cn = amount concentration of the nth substance listed, in mol/dm3; settings: 100 kPa, Liquid, Capillary tube (Ostwald / Ubbelohde) method
[2] = mn = molality of the nth substance listed, in mol/kg; settings: 100 kPa, Liquid, Capillary tube (Ostwald / Ubbelohde) method
[3] = 100 kPa, Liquid, Capillary tube (Ostwald / Ubbelohde) method

O=C(CO)[C@@H](O)[C@H](O)[C@H](O)CO [D-fructose] + O
viscosity [mPa·s], [1]
Settings | c1 = 0.0628 | c1 = 0.06594 | c1 = 0.08345 | c1 = 0.1124 | c1 = 0.1285 | c1 = 0.1523
288.15 K | 1.174 | 1.175 | 1.185 | 1.201 | 1.209 | 1.222
298.15 K | 0.916 | 0.917 | 0.924 | 0.935 | 0.941 | 0.951
308.15 K | 0.739 | 0.74 | 0.745 | 0.754 | 0.759 | 0.766
318.15 K | 0.61 | 0.611 | 0.614 | 0.621 | 0.624 | 0.629

O=C[C@H](O)[C@@H](O)[C@H](O)[C@H](O)CO [D-glucose] + O
viscosity [mPa·s], [2]
Settings | m1 = 0.05335 | m1 = 0.06616 | m1 = 0.08424 | m1 = 0.1038 | m1 = 0.1142 | m1 = 0.1323
288.15 K | 1.167 | 1.175 | 1.185 | 1.196 | 1.202 | 1.211
298.15 K | 0.912 | 0.918 | 0.924 | 0.932 | 0.936 | 0.943
308.15 K | 0.736 | 0.74 | 0.744 | 0.75 | 0.754 | 0.759
318.15 K | 0.609 | 0.612 | 0.616 | 0.621 | 0.623 | 0.628

O=P([O-])(O)O.[Na+] [sodium dihydrogen phosphate] + O
viscosity [mPa·s], [2]
Settings | 288.15 K | 298.15 K | 308.15 K | 318.15 K
m1 = 0.5 | 1.427 | 1.093 | 0.88 | 0.723
m1 = 1 | 1.731 | 1.332 | 1.074 | 0.875
m1 = 1.5 | 2.139 | 1.63 | 1.267 | 1.051
m1 = 2 | 2.65 | 1.987 | 1.457 | 1.257

O [water]
[3]
Settings | viscosity [mPa·s]
288.15 K | 1.138
298.15 K | 0.89
308.15 K | 0.719
318.15 K | 0.596
